Reference: patent US6689773B2, “Uracil substituted phenyl sulfamoyl carboxamides” (BASF Aktiengesellschaft, priority 2000, dated 2004)

Assays:
Assay type in all cases: in vivo
[1] = system: ABUTH, Velvetleaf, Abutilon theophrasti, Medic.; assay: Postemergence herbicidal evaluation (Example 147); settings: rating scale 0-9, two to three weeks after treatment
Outline: (§1)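 ~2-wk seedlings; spray 40 psi; 0.016–0.032 kg/ha a.i. in acetone/water 80/20 + 1.0% methylated seed oil; greenhouse; rated 0–9 visually at 2–3 wk; multiple tests averaged.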

[2] = system: ALOMY, Blackgrass, Alopecurus myosuroides; assay: Postemergence herbicidal evaluation (Example 147); settings: rating scale 0-9, two to three weeks after treatment
Outline: as §1

[3] = system: AMBEL, Ragweed, Common, Ambrosia artemiisifolia, L.; assay: Postemergence herbicidal evaluation (Example 147); settings: rating scale 0-9, two to three weeks after treatment
Outline: as §1

[4] = system: CHEAL, Lambsquarters, Chenopodium album, L. Common; assay: Postemergence herbicidal evaluation (Example 147); settings: rating scale 0-9, two to three weeks after treatment
Outline: as §1

[5] = system: DIGSA, Crabgrass, (Hairy) L, Digitaria sanguinalis, (L)Scop; assay: Postemergence herbicidal evaluation (Example 147); settings: rating scale 0-9, two to three weeks after treatment
Outline: as §1

[6] = system: ECHCG, Barnyardgrass, Echinochloa crusgalli, (L.)Beau; assay: Postemergence herbicidal evaluation (Example 147); settings: rating scale 0-9, two to three weeks after treatment
Outline: as §1

[7] = system: GLXMA, Soybean, Glycine max, (L.) Merr.; assay: Postemergence herbicidal evaluation (Example 147); settings: rating scale 0-9, two to three weeks after treatment
Outline: as §1

[8] = system: IPOHE, Morningglory, Ivyleaf, Ipomoea hederacea, (L)Jacq.; assay: Postemergence herbicidal evaluation (Example 147); settings: rating scale 0-9, two to three weeks after treatment
Outline: as §1

[9] = system: SETVI, Green foxtail, Setaria viridis, (L.)Beau; assay: Postemergence herbicidal evaluation (Example 147); settings: rating scale 0-9, two to three weeks after treatment
Outline: as §1

[10] = system: TRZAW, Winter wheat, Tritium Aestivum, L. (Winter); assay: Postemergence herbicidal evaluation (Example 147); settings: rating scale 0-9, two to three weeks after treatment
Outline: as §1

[11] = system: XANST, Cocklebur, Xanthium strumariam; assay: Postemergence herbicidal evaluation (Example 147); settings: rating scale 0-9, two to three weeks after treatment
Outline: as §1

[12] = system: ZEAMX, Field corn, Zea mays L.; assay: Postemergence herbicidal evaluation (Example 147); settings: rating scale 0-9, two to three weeks after treatment
Outline: as §1

[13] = system: ABUTH, Velvetleaf, Abutilon theophrasti, Medic.; assay: Preemergence herbicidal evaluation (Example 148); settings: rating scale 0-9, two to four weeks after treatment
Outline: (§2)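 Each species was planted separately in cups, its seed mixed into potting soil over roughly an inch of soil. Spraying with compound in aqueous acetone followed planting (~0.125–0.250 kg/ha). Overall appearance, chlorosis and stand were compared with a control after 2–4 weeks.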

[14] = system: ALOMY, Blackgrass, Alopecurus myosuroides; assay: Preemergence herbicidal evaluation (Example 148); settings: rating scale 0-9, two to four weeks after treatment
Outline: as §2

[15] = system: AMBEL, Ragweed, Common, Ambrosia artemiisifolia, L.; assay: Preemergence herbicidal evaluation (Example 148); settings: rating scale 0-9, two to four weeks after treatment
Outline: as §2

[16] = system: CHEAL, Lambsquarters, Chenopodium album, L. Common; assay: Preemergence herbicidal evaluation (Example 148); settings: rating scale 0-9, two to four weeks after treatment
Outline: as §2

[17] = system: DIGSA, Crabgrass, (Hairy) L, Digitaria sanguinalis, (L)Scop; assay: Preemergence herbicidal evaluation (Example 148); settings: rating scale 0-9, two to four weeks after treatment
Outline: as §2

[18] = system: ECHCG, Barnyardgrass, Echinochloa crusgalli, (L.)Beau; assay: Preemergence herbicidal evaluation (Example 148); settings: rating scale 0-9, two to four weeks after treatment
Outline: as §2

[19] = system: GLXMA, Soybean, Glycine max, (L.) Merr.; assay: Preemergence herbicidal evaluation (Example 148); settings: rating scale 0-9, two to four weeks after treatment
Outline: as §2

[20] = system: IPOHE, Morningglory, Ivyleaf, Ipomoea hederacea, (L)Jacq.; assay: Preemergence herbicidal evaluation (Example 148); settings: rating scale 0-9, two to four weeks after treatment
Outline: as §2

[21] = system: SETVI, Green foxtail, Setaria viridis, (L.)Beau; assay: Preemergence herbicidal evaluation (Example 148); settings: rating scale 0-9, two to four weeks after treatment
Outline: as §2

[22] = system: TRZAW, Winter wheat, Tritium Aestivum, L. (Winter); assay: Preemergence herbicidal evaluation (Example 148); settings: rating scale 0-9, two to four weeks after treatment
Outline: as §2

[23] = system: XANST, Cocklebur, Xanthium strumariam; assay: Preemergence herbicidal evaluation (Example 148); settings: rating scale 0-9, two to four weeks after treatment
Outline: as §2

[24] = system: ZEAMX, Field corn, Zea mays L.; assay: Preemergence herbicidal evaluation (Example 148); settings: rating scale 0-9, two to four weeks after treatment
Outline: as §2

3-(5-(N,N-Dimethyl)sulfamoylcarboxamido-4-chloro-2-fluorophenyl)-1,2,3,4-dihydro-6-trifluoromethylpyrimidin-2,4-dione [Example 54]
Postemergence herbicidal rating ABUTH ([1]; rate 0.016 kg/ha): 9.0 | Postemergence herbicidal rating ABUTH ([1]; rate 0.032 kg/ha): 9.0 | Postemergence herbicidal rating ALMOY ([2]; rate 0.016 kg/ha): 2.0 | Postemergence herbicidal rating ALMOY ([2]; rate 0.032 kg/ha): 2.0 | Postemergence herbicidal rating AMBEL ([3]; rate 0.016 kg/ha): 9.0 | Postemergence herbicidal rating AMBEL ([3]; rate 0.032 kg/ha): 9.0 | Postemergence herbicidal rating CHEAL ([4]; rate 0.016 kg/ha): 9.0 | Postemergence herbicidal rating CHEAL ([4]; rate 0.032 kg/ha): 9.0 | Postemergence herbicidal rating DIGSA ([5]; rate 0.016 kg/ha): 5.0 | Postemergence herbicidal rating DIGSA ([5]; rate 0.032 kg/ha): 6.0 | Postemergence herbicidal rating ECHCG ([6]; rate 0.016 kg/ha): 6.0 | Postemergence herbicidal rating ECHCG ([6]; rate 0.032 kg/ha): 8.0 | Postemergence herbicidal rating GLXMA ([7]; rate 0.016 kg/ha): 8.0 | Postemergence herbicidal rating GLXMA ([7]; rate 0.032 kg/ha): 8.5 | Postemergence herbicidal rating IPOHE ([8]; rate 0.016 kg/ha): 9.0 | Postemergence herbicidal rating IPOHE ([8]; rate 0.032 kg/ha): 9.0 | Postemergence herbicidal rating SETVI ([9]; rate 0.016 kg/ha): 7.0 | Postemergence herbicidal rating SETVI ([9]; rate 0.032 kg/ha): 7.0 | Postemergence herbicidal rating TRZAW ([10]; rate 0.016 kg/ha): 5.5 | Postemergence herbicidal rating TRZAW ([10]; rate 0.032 kg/ha): 6.0 | Postemergence herbicidal rating XANST ([11]; rate 0.016 kg/ha): 9.0 | Postemergence herbicidal rating XANST ([11]; rate 0.032 kg/ha): 9.0 | Postemergence herbicidal rating ZEAMX ([12]; rate 0.016 kg/ha): 6.5 | Postemergence herbicidal rating ZEAMX ([12]; rate 0.032 kg/ha): 7.5 | Preemergence herbicidal rating ABUTH ([13]; rate 0.125 kg/ha): 9.0 | Preemergence herbicidal rating ABUTH ([13]; rate 0.25 kg/ha): 9.0 | Preemergence herbicidal rating ALMOY ([14]; rate 0.125 kg/ha): 0.0 | Preemergence herbicidal rating ALMOY ([14]; rate 0.25 kg/ha): 0.0 | Preemergence herbicidal rating AMBEL ([15]; rate 0.125 kg/ha): 7.0 | Preemergence herbicidal rating AMBEL ([15]; rate 0.25 kg/ha): 8.0 | Preemergence herbicidal rating CHEAL ([16]; rate 0.125 kg/ha): 9.0 | Preemergence herbicidal rating CHEAL ([16]; rate 0.25 kg/ha): 9.0 | Preemergence herbicidal rating DIGSA ([17]; rate 0.125 kg/ha): 4.0 | Preemergence herbicidal rating DIGSA ([17]; rate 0.25 kg/ha): 6.0 | Preemergence herbicidal rating ECHCG ([18]; rate 0.125 kg/ha): 3.0 | Preemergence herbicidal rating ECHCG ([18]; rate 0.25 kg/ha): 3.0 | Preemergence herbicidal rating GLXMA ([19]; rate 0.125 kg/ha): 0.0 | Preemergence herbicidal rating GLXMA ([19]; rate 0.25 kg/ha): 0.0 | Preemergence herbicidal rating IPOHE ([20]; rate 0.125 kg/ha): 0.0 | Preemergence herbicidal rating IPOHE ([20]; rate 0.25 kg/ha): 1.0 | Preemergence herbicidal rating SETVI ([21]; rate 0.125 kg/ha): 2.0 | Preemergence herbicidal rating SETVI ([21]; rate 0.25 kg/ha): 3.0 | Preemergence herbicidal rating TRZAW ([22]; rate 0.125 kg/ha): 0.0 | Preemergence herbicidal rating TRZAW ([22]; rate 0.25 kg/ha): 0.0 | Preemergence herbicidal rating XANST ([23]; rate 0.125 kg/ha): 1.0 | Preemergence herbicidal rating XANST ([23]; rate 0.25 kg/ha): 3.0 | Preemergence herbicidal rating ZEAMX ([24]; rate 0.125 kg/ha): 0.0 | Preemergence herbicidal rating ZEAMX ([24]; rate 0.25 kg/ha): 0.0
